Test [1] deals with T1, p_H-CD81 (human CD81 peptide) (Homo sapiens, UniProt P60033).
T1 construct: ^167[…]^188; purchased GeneMark (GMbiolab Co., Ltd., Taiwan); host or cells: chemical synthesis
The experiment in a line: SPR binding to immobilized human CD81 peptide. As to conditions: for Kd: Biacore T200, CM-5 chip, p_H-CD81 immobilized (~1000 RU), flow 30 µL/min 2 min, steady-state isotherm, monovalent model, average of three measurements ± standard deviation; for SPR response / binding (in words): various concentrations over immobilized human CD81 peptide. The text has this:
(§1) Based on the in silico analysis, peptides were designed for experimental validations of the binding site predictions. Four peptides (p_E2-site1, p_E2-site2, p_H-CD81 and p_R-CD81) designed according to the ZDOCK program and MM/PBSA binding free energy calculations were chemically synthesized and purchased from GeneMark (GMbiolab Co., Ltd., Taiwan). The human and rat CD81 peptides, p_H-CD81 and p_R-CD81, and the HCV E2 peptides, p_E2-site1 and p_E2-site2, were derived from the results of molecular docking between ligand E2 and receptor CD81. Control and HCV E2 mutant peptides were also synthesized (S1 Table) for the SPR and cell based binding measurements to rule out the possible non-specific bindings in the investigations. The HCV E2 mutant peptides were designed based on the mutation studies.
(§2) SPR experiments were conducted to measure the binding efficiency of the designed ligand and receptor peptides. The SPR measurements were performed using a Biacore T200 workstation (GE Healthcare, USA). Peptides p_H-CD81 and p_R-CD81 were diluted to a concentration of 7.5 μM in a 10 mM sodium acetate buffer at pH 4.0 and immobilized onto a CM-5 sensor chip using amine coupling (EDC-NHS) for 5 min at a flow speed of 5 μL/min. Approximately 1000 response units (RU) of p_H-CD81 and p_R-CD81 were immobilized on the chip. In this study, data on the kinetics and affinity of ligand-receptor binding were obtained by flowing several different concentrations of the p_E2-site1 and p_E2-site2 over the chip sequentially at a flow rate of 30 µL/min for 2 min. The response was measured at two time points, 0 and 120 sec, to obtain information on the rate of CD81 peptides association with and dissociation from the p-E2-site1 and p-E2-site2 peptides. Equilibrium binding curves were generated and fitted using a monovalent binding model for each peptide to determine the KD of the binding of E2 peptides (p_E2-site1 and p_E2-site2) with receptor CD81 peptides (p_H-CD81 and p_R-CD81).
In general terms: Surface plasmon resonance follows binding to a sensor surface in real time, without labels.

The target of test [2] is T2, p_R-CD81 (rat CD81 peptide) (Rattus norvegicus, UniProt Q62745).
T2 construct: ^167[…]^188; purchased GeneMark (GMbiolab Co., Ltd., Taiwan); host or cells: chemical synthesis
The experiment in a line: SPR binding to immobilized rat CD81 peptide. Particulars: for Kd: steady-state isotherm; for SPR response / binding (in words): various concentrations over immobilized rat CD81 peptide.
Description: as §1, §2

The target in test [3] is T3, p_H-CD81 (human).
T3 construct: human CD81, head domain of the large extracellular loop, residues 167-188; Immobilised on a CM-5 chip by amine coupling; also called human CD81 peptide; receptor peptide from the head domain region of human CD81; source: synthetic peptide, bought: GeneMark (GMbiolab Co., Ltd., Taiwan)
T3 peptide: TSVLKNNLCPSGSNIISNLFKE
The experiment in a line: SPR; Biacore T200; p_H-CD81 or p_R-CD81 (about 1000 RU) immobilised on a CM-5 chip by amine coupling; E2 peptides flowed over at several concentrations, 30 µL/min for 2 min; equilibrium binding curves fitted with a monovalent binding model. Particulars: both partners purified.

The target of test [4] is T4, p_R-CD81 (rat).
T4 construct: rat CD81, head domain of the large extracellular loop, residues 167-188; Immobilised on a CM-5 chip by amine coupling; also called rat CD81 peptide; receptor peptide from the head domain region of rat CD81; source: synthetic peptide, bought: GeneMark (GMbiolab Co., Ltd., Taiwan)
T4 peptide: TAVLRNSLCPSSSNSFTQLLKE
The test is described as above. As to conditions: both partners purified.

Read-outs that look alike come from different tables or passages of the source. Residues, ends and D or L forms follow the SMILES beside them.

`CC[C@H](C)[C@H](N)C(=O)N[C@@H](CC(N)=O)C(=O)N[C@@H](CO)C(=O)N[C@H](C(=O)N[C@@H](C)C(=O)N[C@@H](CC(C)C)C(=O)N[C@@H](CC(N)=O)C(=O)N[C@@H](CS)C(=O)N[C@@H](CC(N)=O)C(=O)N[C@@H](CCC(=O)O)C(=O)N[C@@H](CO)C(=O)N[C@@H](CC(C)C)C(=O)N[C@@H](CC(N)=O)C(=O)N[C@H](C(=O)NCC(=O)N[C@@H](Cc1c[nH]c2ccccc12)C(=O)N[C@@H](CC(C)C)C(=O)N[C@@H](C)C(=O)NCC(=O)N[C@@H](CC(C)C)C(=O)N[C@@H](Cc1ccccc1)C(=O)N[C@@H](Cc1ccc(O)cc1)C(=O)N[C@@H](CCC(N)=O)C(=O)O)[C@@H](C)O)[C@@H](C)O` [p_E2-site1] (H-INSTALNCNESLNTGWLAGLFYQ-OH): the Kd was 7.96 ± 1.7 µM in test [1] and 13.8 ± 2.46 µM in test [2] (Biacore T200, CM-5 chip, p_R-CD81 immobilized (~1000 RU), flow 30 µL/min 2 min, monovalent model, average of three measurements ± standard deviation, read-out: KD).
In the case of `CC(C)[C@H](NC(=O)[C@H](CC(=O)O)NC(=O)[C@@H](NC(=O)[C@H](CC(=O)O)NC(=O)[C@H](CC(N)=O)NC(=O)[C@H](C)NC(=O)CNC(=O)[C@H](Cc1c[nH]c2ccccc12)NC(=O)[C@H](CO)NC(=O)[C@H](Cc1ccc(O)cc1)NC(=O)[C@@H](NC(=O)[C@@H]1CCCN1C(=O)[C@H](C)NC(=O)CNC(=O)[C@H](CO)NC(=O)[C@@H](N)CCCNC(=N)N)[C@@H](C)O)[C@@H](C)O)C(=O)N[C@@H](Cc1ccccc1)C(=O)O` [p_E2-site2] (H-RSGAPTYSWGANDTDVF-OH), the Kd came out at 1.07 ± 0.09 µM in test [1] and 6.4 µM in test [2] (p_R-CD81 immobilized, value printed in Fig 6 plot, read-out: KD (printed in the picture, Fig 6)).
Turning to “CPLNGSTVYGHLRHCLSCSGTMVKF [p_random-25, control (random) peptide]”, the “SPR response / binding (in words)” value in test [1] and in test [2] was “not significantly increased” each time.
In the case of “SENHLRHCLSCSKCRKEM [p_random-18, control (random) peptide]”, the “SPR response / binding (in words)” value in test [1] and in test [2] was “not significantly increased” throughout.

B1: p_E2-site2 (peptide)
peptide: RSGAPTYSWGANDTDVF
notes: hepatitis C virus envelope glycoprotein E2, residues 521-537 of the polyprotein; also called E2-site2 peptide; E2-s2; source: synthetic peptide, bought: GeneMark (GMbiolab Co., Ltd., Taiwan)
As for B1, the dissociation constant Kd in test [3] was found to be 1.07 µM; in test [4], 6.38 µM.

B2: p_E2-site1 (peptide)
peptide: INSTALNCNESLNTGWLAGLFYQ
notes: hepatitis C virus envelope glycoprotein E2, residues 422-444 of the polyprotein; also called E2-site1 peptide; E2-s1; source: synthetic peptide, bought: GeneMark (GMbiolab Co., Ltd., Taiwan)
For the molecule B2, the Kd in test [3] is 7.96 µM; in test [4], 13.8 µM.

The Kd is the concentration at which binding is half-saturated.

Values taken from paper PMC5421814, “A Sequence in the loop domain of hepatitis C virus E2 protein identified in silico as crucial for the selective binding to human CD81” (PLoS ONE, 2017).
